# In article PMC5282547, “The Proline/Arginine Dipeptide from Hexanucleotide Repeat Expanded C9ORF72 Inhibits the Proteasome” (eNeuro, 2017):
# Read-outs that look alike come from different tables or passages of the source. Where no end group is shown, it is not given here.
# Columns and labels:
# [1] = system: purified affinity-purified human proteasomes; format: biochemical; conditions: for Δ0–5 of Ub-Sic1 signal compared with the no PR20 group: 20 nM Ub-Sic1, n = 3, p < 0.05
# Method: Polyubiquitylated Sic1 proteins with PY degron motifs and T7 tag (Ub-Sic1) was prepared as previously described by [Choi et al. (2016)]. Different concentrations of PR20 peptides (0, 50, or 500 nM) and purified affinity-purified human proteasomes (5 nM) were preincubated 20 min in proteasome assay buffer [50 mM Tris-HCl (pH 7.5), 100 mM NaCl, 10% glycerol, 2 mM ATP, 10 mM MgCl2, and 1 mM DTT] on ice, and 20 nM reconstituted Ub-Sic1 was subsequently added. Degradation of Ub-Sic1 and PR20 peptides was monitored by immunoblotting using anti-T7 and anti-HA antibodies, respectively. Band intensities were quantified using ImageJ software (version 1.48k, NIH) from three independent immunoblotting assays (n = 3).
# human astrocytes = conditions: DPR applied repeatedly; ref Kwon et al. (2014); cited from earlier work
# Description: We draw a number of conclusions from these experiments.
# [2] = system: mixed spinal cord cultures; test: Cellular accumulation and disposal of HA-tagged DPR (immunoblot of cell lysates, continuous exposure or 2-h pulse-chase)
# Method: Confluent dishes of astrocyte neuron cocultures at 37°C had volumes equalized to 2 ml of cell culture media each. Approximately 300 μl of media from each dish was removed and pooled with other dishes, PR20 stock solution was added, and the mixture was then added back to the corresponding culture dish, so that each dish contained a final concentration of 2 μM. All plates were incubated with PR20 for 48 h.
# Lysis buffer was prepared containing 1% (v/v) protease inhibitor cocktail, 1% (v/v) PMSF, and 1% (v/v) leucine in 1% RIPA buffer solution on ice. Culture dishes were washed once with ice-cold PBS to remove any remaining media. A total of 125 μl (35-mm dish), 150 μl (6-well plate), or 250 μL (60-mm dish) of lysis buffer was added to each plate, and cells were scraped into a cold 1.5-ml tube. Samples were sonicated for 30 s at 20% intensity, placed on a rotator at 4°C for 20 min, and then centrifuged for 15 min at 13,200 rpm. Supernatant was then removed from each tube for further analysis.
# We investigated the fate of PR20 in mixed spinal cord cultures through immunoblotting and immunocytochemistry. […] To gain further insight into the kinetics of the observed decrease in PR20 levels in cell lysates over time, we pulsed cells with 2 µM PR20 for 2 h, washed, replaced with fresh media (lacking PR20), and made cell lysates at regular intervals thereafter. […] To more easily follow GR20 by immunoblotting, we applied 10 µM GR20 to cultures and performed the same kinetic analysis as described in Figure 1D.
# phosphorylated AMPK = test: Immunoblot for mitochondrial dysfunction; format: cell-based, rat; conditions: 2 µM, 48 h, immunoblot normalized to actin
# Method: (§1) All plates were incubated with PR20 for 48 h.
# Dendra2 = test: Optical pulse labeling of Dendra2; format: cell-based, rat; conditions: 2 µM peptide; vehicle 29.6 h; not significantly different from vehicle
# Method: (§2) Primary spinal neurons were dissected from E15 rat pups and cultured at a density of 2.5 × 10^5 cells/ml on a laminin/poly-lysine-coated 96-well plate in motor neuron media. Four days after plating, neurons were transfected with Lipofectamine 2000 (Invitrogen). DNA-Lipofectamine mixtures were incubated with neurons for 20 min followed by rinsing. Neurons were then placed in 100 µL of conditioned media that was collected immediately prior to transfection and half fresh motor neuron media containing 4 µM PR20, resulting in a final concentration of 2 µM PR20.
# (§3) Optical pulse labeling experiments were performed using an automated microscopy platform previously described by [Arrasate et al. (2004)] and [Barmada et al. (2014)]. A Nikon Eclipse Ti inverted microscope equipped with a PerfectFocus system, 20× objective lens and an Andor iXon3 897 EMCCD camera were used to acquire images. Samples were illuminated with a Sutter Instruments Lamba XL lamp. The microscope and related components were encased in custom-built plexiglass enclosure set to maintain the temperature at 37°C and CO2 at 5%. Semrock GFP and TRITC filters were used for excitation and detection. A Semrock 405-nm long-pass filter was used for photoactivation. Image acquisition and stage movements were accomplished in an automated fashion using µManager and original code written in BeanShell. For all experiments, photoconversion occurred 24 h following transfection. GFP and TRITC images were acquired immediately following activation and subsequently every 2 h for 12 h. Images were acquired in a similar 12-h window starting 48 h after PR20 treatment. Using in-house image analysis scripts, neuronal cell bodies were identified based on their fluorescent intensity and morphology, and a ROI was drawn around the perimeter of each cell at each time. Single-cell TRITC intensity values were recorded and used to fit a first order exponential decay curve for individual neurons and calculate a Dendra2-light chain 3 (LC3) half-life for each cell. […]
# [3] = system: KDEL-tagged chaperones BiP and PDI; test: Immunoblot for ER stress; format: cell-based, rat; conditions: 2 µM, 48 h, immunoblot normalized to actin
# Method: as §1
# Dendra2-LC3 = test: Autophagic flux assay, optical pulse labeling of Dendra2-LC3; format: cell-based, rat; conditions: 2 µM peptide, primary spinal neurons, single-cell optical pulse labeling
# Method: as §2, §3
# motor neurons = test: Motor neuron survival in mixed spinal cord cultures (SMI32 counts), LD50 determination; format: cell-based, rat
# Method: Mixed spinal cord neuron cultures were prepared as described previously ([Mojsilovic-Petrovic et al., 2006]). Briefly, an astrocyte feeder layer was prepared from the cortex of newborn Sprague Dawley rat pups [postnatal day 2 (P2)] and grown to ∼80% confluency. Subsequently, dissociated embryonic day 15 (E15) spinal cord neurons were added. One to two days later, AraC ([…]) (catalog #C6645; Sigma) was added for 24 h to arrest astrocyte proliferation. Cultures were maintained in glia-conditioned medium supplemented with the following trophic factors (1.0 ng/ml each): human neurotrophin-3, human neurotrophin-4, human brain-derived neurotrophic factor, and rat ciliary neurotrophic factor (Alomone Labs). Half of the culture medium was replaced on a biweekly basis.
# Days in vitro (DIV)14 mixed spinal cord cultures were exposed to PR20 or GR20 by addition of synthetic peptide to the media one time. Cultures were fixed 5 d later with freshly prepared 4% paraformaldehyde for 20 min, washed extensively with 0.1 M PBS, pH 7.4, and immunostained with SMI32 to identify motor neurons. Immunopositive cells >25 µm in diameter are motor neurons based on their costaining for peripherin, ChAT, and islet 1/2 ([Mojsilovic-Petrovic et al., 2006]). Motor neurons were counted in three nonoverlapping, randomly selected fields on a coverslip using a 5[times objective, and the values from a single coverslip averaged. The results of 3-5 independently treated coverslips were the basis and means and variance used in statistical analysis. Each experiment was repeated with independently generated culture 4+ times ([Mojsilovic-Petrovic et al., 2006]).
# Motor neuron survival 5 d later was determined. Once the approximate LD50 was determined, we repeated the analysis with more closely spaced concentrations for a more precise definition of the LD50. Determination of the LD50 of MG132 was accomplished in an identical manner.
# [4] = 2 µM in media, continuous exposure
sequence,measurement,setting,value
PRPRPRPRPRPRPRPRPRPRPRPRPRPRPRPRPRPRPRPRYPYDVPDYA [PR20],degradation of the peptide by purified 26S proteasomes,"[1]; 0, 5 and 15 min, anti-HA immunoblot, pH 7.5 assay buffer with ATP",not itself degraded
same,Δ0–5 of Ub-Sic1 signal compared with the no PR20 group,"[1]; 1:10 proteasomes:PR20 (5 nM proteasomes, 50 nM PR20)",statistically significant less
same,Δ0–15 of Ub-Sic1 signal compared with the no PR20 group,"[1]; 1:10 proteasomes:PR20, n = 3, p < 0.05",statistically significantly less
same,Δ0–5 of Ub-Sic1 signal compared with the no PR20 group,"[1]; 1:100 proteasomes:PR20 (5 nM proteasomes, 500 nM PR20)",statistically significant less
same,Δ0–15 of Ub-Sic1 signal compared with the no PR20 group,"[1]; 1:100 proteasomes:PR20, n = 3, p < 0.05",statistically significantly less
same,LD50 that kills human astrocytes,human astrocytes,8.4 µM
same,time of maximum immunoblot signal in cell lysates,[2]; [4],1.0 to 2.0 h
same,time point at which immunoblot signal is undetectable,[2]; [4],48 h
same,time at which peptide is first detectable in cell lysates,"[2]; 2 µM in media, continuous exposure, anti-HA immunoblot",approximately 0.5 h
same,decrement in peptide abundance with versus without bafilomycin A1 in the chase media,"[2]; 2-h pulse with 2 µM, chase with Baf A1 400 nM",the same
same,loss of peptide with MG132 versus vehicle in the chase media,"[2]; 2-h pulse with 2 µM, chase with MG132 5 µM",indistinguishable
same,lysate fractions with detectable Western blot signal at the 2-h time point,"[2]; 2-h pulse-chase, 2 µM",soluble and insoluble fractions
same,time point by which signal diminishes to a barely detectable level,"[2]; 2-h pulse-chase, 2 µM",6 h
same,half-life of dipeptide in cells,[2]; immunoblot of mixed spinal cord culture lysates,on the orders of hours
same,mitochondrial dysfunction (phosphorylated AMPK) versus vehicle,phosphorylated AMPK,no statistically significant differences
same,Dendra2 half-life,Dendra2,30.5 h
same,ER stress (BiP and PDI abundance) versus vehicle,[3],no statistically significant differences
same,extension of Dendra2-LC3 half-life compared with control,Dendra2-LC3,~5.6 h
same,motor neuron death at the 48-h time point,"motor neurons; 2 µM PR20, 48 h",No significant motor neuron death
same,"LD50, death of motor neurons","motor neurons; single application to DIV14 mixed spinal cord cultures on astrocyte feeder layer, motor neuron survival 5 d later",2.0 µM
